# Assay results from patent publication US20140314857A1, “FORMULATIONS FOR ENHANCED BIOAVAILABILITY OF ZANAMIVIR” (priority 2012, published 2014).
# System: Caco-2 cell monolayers
# Assay: Initial screening of permeability enhancers with peramivir across Caco-2 cell monolayers
# Details: with glycerol or Capmul MCM L8 as enhancer; results not shown
smiles,measurement,value
CCC(CC)[C@H](NC(C)=O)[C@@H]1[C@H](O)[C@@H](C(=O)O)C[C@H]1N=C(N)N [peramivir],drug transport across Caco-2 cell monolayers,substantially increased drug transport
